# Structures can show the parent of a compound that is named as a salt.
# Molecular target: T1, human CGT (ceramide galactosyltransferase), CHO/CGT lysate (Homo sapiens, UniProt Q16880)
# T1 construct: Full-length human CGT cDNA was cloned into the BamH1/Xho1 site of pcDNA3.1 (+); expressed in transfected cells; host or cells: Chinese hamster ovary (CHO) cells; lysate prepared with M-PER
# T1 sequence (Q16880 21-541): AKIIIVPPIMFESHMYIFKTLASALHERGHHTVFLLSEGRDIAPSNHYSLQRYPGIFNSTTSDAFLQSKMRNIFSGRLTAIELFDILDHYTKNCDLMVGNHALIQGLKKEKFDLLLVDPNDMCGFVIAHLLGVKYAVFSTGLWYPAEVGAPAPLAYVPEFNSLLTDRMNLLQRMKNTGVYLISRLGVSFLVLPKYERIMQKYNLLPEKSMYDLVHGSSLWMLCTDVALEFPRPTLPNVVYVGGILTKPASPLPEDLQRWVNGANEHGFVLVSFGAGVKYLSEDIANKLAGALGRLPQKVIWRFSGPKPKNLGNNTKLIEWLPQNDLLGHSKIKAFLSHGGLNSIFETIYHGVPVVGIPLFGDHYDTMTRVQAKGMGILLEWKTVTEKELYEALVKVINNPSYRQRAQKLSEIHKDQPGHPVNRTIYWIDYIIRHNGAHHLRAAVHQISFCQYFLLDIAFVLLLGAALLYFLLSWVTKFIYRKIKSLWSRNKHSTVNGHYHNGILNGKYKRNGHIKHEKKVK
# Test: CGT enzyme assay, RapidFire/MS/MS readout with 0.01% Tween added (Table 1 ranges with two asterisks **)
# Type: biochemical
# Conditions: CGT enzymatic assay; range with two asterisks (**): RapidFire/MS/MS method with 0.01% Tween added
# Procedure, shortened: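 IC50s come from variable-slope dose-response fits of internal-standard-normalized C6-NBD-dihydro-galactosylceramide, measured by RapidFire/MS/MS (ESI negative). Reactions: 1 h, 37 °C, human CGT-expressing CHO lysate (4 μg), 0.001–50 μM compound, 10 μM NBD-dihydro-ceramide, 17.5 μM UDP-galactose, 0.5% DMSO, pH 7.2; 0.01% Tween 80 added for ** values.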
row,Compound,IC50 [µM]
1,"CN(CCCN)C(=O)[C@@H](NS(=O)(=O)c1ccc2cc(OC3CCCC3)ccc2c1)C(F)(F)c1ccc(-c2ccc(Cl)cc2)cc1 [Compound 157-1, (R)—N-(3-aminopropyl)-3-(4′-chloro-[1,1′-biphenyl]-4-yl)-2-((6-(cyclopentyloxy)naphthalene)-2-sulfonamido)-3,3-difluoro-N-methylpropanamide]",1 to 10
2,"CN(CCCN)C(=O)[C@H](NS(=O)(=O)c1ccc2cc(OC3CCCC3)ccc2c1)C(F)(F)c1ccc(-c2ccc(Cl)cc2)cc1 [Compound 157-2, (S)—N-(3-aminopropyl)-3-(4′-chloro-[1,1′-biphenyl]-4-yl)-2-((6-(cyclopentyloxy)naphthalene)-2-sulfonamido)-3,3-difluoro-N-methyl propanamide]",30 to 100
3,"NC1CC2CCC(C1)N2C(=O)[C@@H](NC(=O)[C@H](O)c1ccc2cc(OC3CCCC3)ccc2c1)C(F)(F)c1ccc2cc(Br)ccc2c1 (stereo partly drawn) [Compound 158-1, (2R)—N-((2R)-3-(3-amino-8-azabicyclo[3.2.1]octan-8-yl)-1-(6-bromonaphthalen-2-yl)-1,1-difluoro-3-oxopropan-2-yl)-2-(6-(cyclopentyloxy)naphthalen-2-yl)-2-hydroxyacetamide trifluoroacetate]",1 to 10
4,"NC1CC2CCC(C1)N2C(=O)[C@H](NC(=O)[C@@H](O)c1ccc2cc(OC3CCCC3)ccc2c1)C(F)(F)c1ccc2cc(Br)ccc2c1 (stereo partly drawn) [Compound 158-2, (2S)—N-((2 S)-3-(3-amino-8-azabicyclo[3.2.1]octan-8-yl)-1-(6-bromonaphthalen-2-yl)-1,1-difluoro-3-oxopropan-2-yl)-2-(6-(cyclopentyloxy)naphthalen-2-yl)-2-hydroxyacetamide trifluoroacetate]",30 to 100
5,"NC1CC2CCC(C1)N2C(=O)[C@@H](NC(=O)[C@@H](O)c1ccc2cc(OC3CCCC3)ccc2c1)C(F)(F)c1ccc2cc(Br)ccc2c1 (stereo partly drawn) [Compound 158-3, (2S)—N-((2R)-3-(3-amino-8-azabicyclo[3.2.1]octan-8-yl)-1-(6-bromonaphthalen-2-yl)-1,1-difluoro-3-oxopropan-2-yl)-2-(6-(cyclopentyloxy)naphthalen-2-yl)-2-hydroxyacetamide trifluoroacetate]",10 to 30
6,"NC1CC2CCC(C1)N2C(=O)[C@H](NC(=O)[C@H](O)c1ccc2cc(OC3CCCC3)ccc2c1)C(F)(F)c1ccc2cc(Br)ccc2c1 (stereo partly drawn) [Compound 158-4, (2R)—N-((2S)-3-(3-amino-8-azabicyclo[3.2.1]octan-8-yl)-1-(6-bromonaphthalen-2-yl)-1,1-difluoro-3-oxopropan-2-yl)-2-(6-(cyclopentyloxy)naphthalen-2-yl)-2-hydroxyacetamide trifluoroacetate]",30 to 100
7,"NC1CC2CCC(C1)N2C(=O)[C@@H](NC(=O)C(=O)c1ccc2cc(OC3CCCC3)ccc2c1)C(F)(F)c1ccc2cc(Br)ccc2c1 (stereo partly drawn) [Compound 160-1, N-((2R)-3-(3-amino-8-azabicyclo[3.2.1]octan-8-yl)-1-(6-bromonaphthalen-2-yl)-1,1-difluoro-3-oxopropan-2-yl)-2-(6-(cyclopentyloxy)naphthalen-2-yl)-2-oxoacetamide trifluoroacetate]",10 to 30
8,"NC1CC2CCC(C1)N2C(=O)[C@H](NC(=O)C(=O)c1ccc2cc(OC3CCCC3)ccc2c1)C(F)(F)c1ccc2cc(Br)ccc2c1 (stereo partly drawn) [Compound 160-2, N-((2S)-3-(3-amino-8-azabicyclo[3.2.1]octan-8-yl)-1-(6-bromonaphthalen-2-yl)-1,1-difluoro-3-oxopropan-2-yl)-2-(6-(cyclopentyloxy)naphthalen-2-yl)-2-oxoacetamide trifluoroacetate]",30 to 100
9,"N[C@H]1CCN(C(=O)[C@H](NS(=O)(=O)c2ccc3cc(OC4CCCC4)ccc3c2)C(F)(F)c2ccc(-c3ccc(Cl)cc3)cc2)CC1(F)F [Compound 161-2, N—((S)-3-((S)-4-amino-3,3-difluoropiperidin-1-yl)-1-(4′-chloro-[1,1′-biphenyl]-4-yl)-1,1-difluoro-3-oxopropan-2-yl)-6-(cyclopentyloxy) naphthalene-2-sulfonamide trifluoroacetate]",30 to 100
10,"N[C@@H]1CCN(C(=O)[C@H](NS(=O)(=O)c2ccc3cc(OC4CCCC4)ccc3c2)C(F)(F)c2ccc(-c3ccc(Cl)cc3)cc2)CC1(F)F [Compound 161-4, N—((S)-3-((R)-4-amino-3,3-difluoropiperidin-1-yl)-1-(4′-chloro-[1,1′-biphenyl]-4-yl)-1,1-difluoro-3-oxopropan-2-yl)-6-(cyclopentyloxy)naphthalene-2-sulfonamide trifluoroacetate]",1 to 10
11,"NC1CCN(C(=O)[C@@H](NS(=O)(=O)c2ccc(OCC3CCCCC3)cc2)C(F)(F)c2ccc(-c3ccc(Cl)cc3)cn2)CC1 [Compound 163-1, (R)—N-(3-(4-aminopiperidin-1-yl)-1-(5-(4-chlorophenyl)pyridin-2-yl)-1,1-difluoro-3-oxopropan-2-yl)-4-(cyclohexylmethoxy)benzenesulfonamide]",1 to 10

# Results, then the compound that gave them:
row,IC50 [µM],Compound
1,1 to 10,"NC1CCN(C(=O)[C@@H](NC(=O)[C@H](O)c2ccc3cc(OC4CCCC4)ccc3c2)C(F)(F)c2ccc(-c3ccc(Cl)cc3)cc2)CC1 [Compound 159-1, (R)—N—((R)-3-(4-aminopiperidin-1-yl)-1-(4′-chloro-[1,1′-biphenyl]-4-yl)-1,1-difluoro-3-oxopropan-2-yl)-2-(6-(cyclopentyloxy)naphthalen-2-yl)-2-hydroxyacetamide trifluoroacetate]"
2,30 to 100,"NC1CCN(C(=O)[C@H](NC(=O)[C@@H](O)c2ccc3cc(OC4CCCC4)ccc3c2)C(F)(F)c2ccc(-c3ccc(Cl)cc3)cc2)CC1 [Compound 159-2, (S)—N—((S)-3-(4-aminopiperidin-1-yl)-1-(4′-chloro-[1,1′-biphenyl]-4-yl)-1,1-difluoro-3-oxopropan-2-yl)-2-(6-(cyclopentyloxy)naphthalen-2-yl)-2-hydroxyacetamide trifluoroacetate]"
3,1 to 10,"NC1CCN(C(=O)[C@@H](NC(=O)[C@@H](O)c2ccc3cc(OC4CCCC4)ccc3c2)C(F)(F)c2ccc(-c3ccc(Cl)cc3)cc2)CC1 [Compound 159-3, (S)—N—((R)-3-(4-aminopiperidin-1-yl)-1-(4′-chloro-[1,1′-biphenyl]-4-yl)-1,1-difluoro-3-oxopropan-2-yl)-2-(6-(cyclopentyloxy)naphthalen-2-yl)-2-hydroxyacetamide trifluoroacetate]"
4,30 to 100,"NC1CCN(C(=O)[C@H](NC(=O)[C@H](O)c2ccc3cc(OC4CCCC4)ccc3c2)C(F)(F)c2ccc(-c3ccc(Cl)cc3)cc2)CC1 [Compound 159-4, (R)—N—((S)-3-(4-aminopiperidin-1-yl)-1-(4′-chloro-[1,1′-biphenyl]-4-yl)-1,1-difluoro-3-oxopropan-2-yl)-2-(6-(cyclopentyloxy)naphthalen-2-yl)-2-hydroxyacetamide trifluoroacetate]"
5,1 to 10,"N[C@@H]1CCN(C(=O)[C@@H](NS(=O)(=O)c2ccc3cc(OC4CCCC4)ccc3c2)C(F)(F)c2ccc(-c3ccc(Cl)cc3)cc2)CC1(F)F [Compound 161-1, N—((R)-3-((R)-4-amino-3,3-difluoropiperidin-1-yl)-1-(4′-chloro-[1,1′-biphenyl]-4-yl)-1,1-difluoro-3-oxopropan-2-yl)-6-(cyclopentyloxy)naphthalene-2-sulfonamide trifluoroacetate]"
6,< 1,"N[C@H]1CCN(C(=O)[C@@H](NS(=O)(=O)c2ccc3cc(OC4CCCC4)ccc3c2)C(F)(F)c2ccc(-c3ccc(Cl)cc3)cc2)CC1(F)F [Compound 161-3, N—((R)-3-((S)-4-amino-3,3-difluoropiperidin-1-yl)-1-(4′-chloro-[1,1′-biphenyl]-4-yl)-1,1-difluoro-3-oxopropan-2-yl)-6-(cyclopentyloxy)naphthalene-2-sulfonamide trifluoroacetate]"
7,1 to 10,"NC1CCN(C(=O)[C@@H](NS(=O)(=O)c2ccc3cc(OC4CCCC4)ccc3c2)C(F)(F)c2ccc(-c3ccc(Cl)cc3)cn2)CC1 [Compound 162-1, (R)—N-(3-(4-aminopiperidin-1-yl)-1-(5-(4-chlorophenyl)pyridin-2-yl)-1,1-difluoro-3-oxopropan-2-yl)-6-(cyclopentyloxy)naphthalene-2-sulfonamide]"
8,10 to 30,"NC1CCN(C(=O)[C@H](NS(=O)(=O)c2ccc3cc(OC4CCCC4)ccc3c2)C(F)(F)c2ccc(-c3ccc(Cl)cc3)cn2)CC1 [Compound 162-2, (S)—N-(3-(4-aminopiperidin-1-yl)-1-(5-(4-chlorophenyl)pyridin-2-yl)-1,1-difluoro-3-oxopropan-2-yl)-6-(cyclopentyloxy)naphthalene-2-sulfonamide]"
9,30 to 100,"NC1CCN(C(=O)[C@H](NS(=O)(=O)c2ccc(OCC3CCCCC3)cc2)C(F)(F)c2ccc(-c3ccc(Cl)cc3)cn2)CC1 [Compound 163-2, (S)—N-(3-(4-aminopiperidin-1-yl)-1-(5-(4-chlorophenyl)pyridin-2-yl)-1,1-difluoro-3-oxopropan-2-yl)-4-(cyclohexylmethoxy) benzenesulfonamide]"

# From US20190322676A1, “CERAMIDE GALACTOSYLTRANSFERASE INHIBITORS FOR THE TREATMENT OF DISEASE” (BioMarin Pharmaceutical Inc., priority 2016, published 2019)
